Reference: PubChem BioAssay (NCI)
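Protocol summary: plate cells (96-well), add compound at 5 concentrations, incubate 48 h, interpolate endpoints linearly. GI50 is the concentration that inhibits growth by half. At the TGI there is no net growth.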

Experiments:
Assay in all cases: NCI anticancer screen, dose series, 48 h
COLO 205 colon = test system: COLO 205 colon
HCC-2998 colon = test system: HCC-2998 colon
HOP-92 NSCLC = test system: HOP-92 NSCLC
SW-620 colon = test system: SW-620 colon
DU-145 prostate = test system: DU-145 prostate
UACC-257 melanoma = test system: UACC-257 melanoma
SK-MEL-2 melanoma = test system: SK-MEL-2 melanoma
NCI-H460 lung = test system: NCI-H460 lung
HL-60(TB) leukemia = test system: HL-60(TB) leukemia
K-562 leukemia = test system: K-562 leukemia

| Structure (SMILES) | GI50 (COLO 205 colon) [nM] | TGI (COLO 205 colon) [nM] | GI50 (HCC-2998 colon) [nM] | TGI (HCC-2998 colon) [nM] | GI50 (HOP-92 NSCLC) [nM] | TGI (HOP-92 NSCLC) [nM] | GI50 (SW-620 colon) [nM] | TGI (SW-620 colon) [nM] | GI50 (DU-145 prostate) [nM] | TGI (DU-145 prostate) [nM] | GI50 (UACC-257 melanoma) [nM] | TGI (UACC-257 melanoma) [nM] | GI50 (SK-MEL-2 melanoma) [nM] | TGI (SK-MEL-2 melanoma) [nM] | GI50 (NCI-H460 lung) [nM] | TGI (NCI-H460 lung) [nM] | GI50 (HL-60(TB) leukemia) [nM] | TGI (HL-60(TB) leukemia) [nM] | GI50 (K-562 leukemia) [nM] | TGI (K-562 leukemia) [nM] |
| --- | --- | --- | --- | --- | --- | --- | --- | --- | --- | --- | --- | --- | --- | --- | --- | --- | --- | --- | --- | --- |
| O=c1[nH]c(-c2ccc(C(F)(F)F)cc2)nc2c1CSCC2 | > 100000 | > 100000 | > 81200 | > 100000 | 17100 | 46300 | > 100000 | > 100000 | > 84500 | > 100000 | > 65200 | > 100000 | 35600 | > 93200 | > 100000 | > 100000 | > 100000 | > 100000 | > 100000 | > 100000 |
| NC(CSC(c1ccccc1)(c1ccccc1)c1ccc2ccccc2c1)C(=O)O (configuration not stated) | 81.6 | 875 | 37.4 | 496 | 215 | 23200 | 38.1 | 11600 | 98.6 | 333 | 9670 | 34300 | 1290 | 30000 | 48.5 | 12100 | 49.3 | – | 46.1 | > 100000 |
| c1ccc(-c2nc(N3CCNCC3)c3nc(-c4ccccc4)oc3n2)cc1 | 2060 | 4120 | 1810 | 3490 | 1500 | 3100 | 1860 | 3570 | 1860 | 3330 | 1930 | 3810 | 1910 | 3740 | 1730 | 3380 | 1890 | 4080 | 1440 | 4220 |
| O=[As](O)(O)c1ccc(Cc2ccc([As](=O)(O)O)cc2)cc1 | – | 1900 | – | 3680 | – | 2920 | – | 2180 | – | 1170 | – | 1300 | – | 2870 | – | 2430 | – | 3980 | – | 3680 |
| Cn1c(O)c(C(=O)Nc2ccc([N+](=O)[O-])cc2)c(=O)n(C)c1=S | – | 19900 | – | 7230 | – | 4700 | – | 31300 | – | 11500 | – | 6360 | – | 5530 | – | 24100 | – | > 100000 | – | > 50900 |
| COc1ccc(/C=C(\C#N)c2cc3ccccc3n2C)cc1 | 366 | – | 865 | 5980 | 1500 | > 100000 | 357 | > 100000 | 502 | > 100000 | 3320 | > 100000 | 471 | > 100000 | 389 | 37900 | 262 | – | 178 | > 100000 |
| COc1ccc(/C=C2\N=C3SC=C(N)N3C2=O)cc1 | 1130 | 4230 | 1650 | 3280 | 224 | 1930 | 1340 | 6070 | 1200 | 2710 | 1060 | 5330 | 1020 | 2750 | 582 | 14000 | 1120 | 4600 | 1560 | 17300 |
| C[C@@H]1CC[C@@]2(OC1)O[C@H]1C[C@H]3[C@@H]4CC=C5C[C@@H](O[C@@H]6O[C@H](CO)[C@@H](O[C@@H]7O[C@@H](CO)[C@H](O)[C@H]7O)[C@H](O)[C@H]6O[C@@H]6O[C@@H](C)[C@H](O)[C@@H](O)[C@H]6O)CC[C@]5(C)[C@H]4CC[C@]3(C)[C@H]1[C@@H]2C | 966 | 2170 | 1710 | 3100 | 806 | 2100 | 577 | 1930 | 1170 | 2400 | 1310 | 2640 | 1670 | 3040 | 928 | 2290 | 1440 | 2810 | 873 | 2640 |
| CCSC1=CC(=O)c2ccccc2C1=O | 2330 | 5220 | 17000 | 31800 | 1320 | 2660 | 1560 | 3420 | 14400 | 27800 | 1600 | 3890 | 6480 | 15900 | 20500 | 46800 | 389 | 1800 | 1610 | 4520 |
